This passage reports TGI results from PubChem BioAssay (NCI).

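Tested at 5 concentrations; 48 h exposure; 96-well plates; endpoints linearly interpolated, else capped at highest concentration. TGI marks complete inhibition of growth.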 Some results are limits rather than exact numbers.

Test systems include HOP-92 NSCLC; SW-620 colon; UACC-62 melanoma; ACHN renal; SNB-75 CNS; RPMI-8226 leukemia; SK-OV-3 ovarian; RXF 393 renal; NCI-H23 lung; BT-549 breast; U251 CNS; MALME-3M melanoma; SNB-19 CNS; MCF7 breast; OVCAR-5 ovarian; MDA-MB-435; MOLT-4 leukemia; NCI-H226 lung; KM12 colon.
Experiment in all cases: DTP human tumour cell line panel, 48 h

For the compound `CC(C)(C)OC(=O)NCCCCC(N)C(N)=O` (centres undefined), the TGI with HOP-92 NSCLC, in the assay on SW-620 colon, in the assay with UACC-62 melanoma, in the assay with ACHN renal, with SNB-75 CNS and in the assay with RPMI-8226 leukemia was more than 100 µM each time. The concentration for total growth inhibition (TGI) in the assay with SK-OV-3 ovarian, in the assay on RXF 393 renal, in the assay on NCI-H23 lung, in the assay on BT-549 breast, in the assay with U251 CNS and with MALME-3M melanoma was more than 100 µM in each case. Also, the total growth inhibition concentration (TGI) with SNB-19 CNS, in the assay on MCF7 breast, in the assay with OVCAR-5 ovarian, in the assay on MDA-MB-435, in the assay with MOLT-4 leukemia and with NCI-H226 lung was more than 100 µM each time. Further, in the assay on KM12 colon, the TGI was more than 100 µM.
For the compound `NC(Cc1ccc(S(=O)(=O)O)cc1)C(=O)NC(CCCCNC(=O)NCCCCC(NC(=O)C(N)Cc1ccc(S(=O)(=O)O)cc1)C(=O)NC(Cc1ccc(S(=O)(=O)O)cc1)C(=O)O)C(=O)NC(Cc1ccc(S(=O)(=O)O)cc1)C(=O)O` (centres undefined), the TGI in the assay with SW-620 colon, in the assay on UACC-62 melanoma, in the assay with ACHN renal, with SNB-75 CNS, with RPMI-8226 leukemia and in the assay with SK-OV-3 ovarian was more than 100 µM in each case. Besides, the TGI with RXF 393 renal, in the assay on NCI-H23 lung, with BT-549 breast, in the assay with U251 CNS, in the assay on MALME-3M melanoma and with MCF7 breast was more than 100 µM each time. For the same compound, the TGI with OVCAR-5 ovarian, with MDA-MB-435, with MOLT-4 leukemia, with NCI-H226 lung and in the assay on KM12 colon was more than 100 µM throughout.
On to `OCC1OC(n2nc(-c3ccccc3)nc2-c2cnccn2)C(O)C(O)C1O` (centres undefined), for which the TGI in the assay with HOP-92 NSCLC, with SW-620 colon, in the assay on UACC-62 melanoma, in the assay on SNB-75 CNS, with RPMI-8226 leukemia and in the assay with SK-OV-3 ovarian was more than 100 µM in each case. For the same compound, the TGI in the assay on NCI-H23 lung, in the assay with BT-549 breast, in the assay with U251 CNS, in the assay with SNB-19 CNS, with MCF7 breast and with OVCAR-5 ovarian was more than 100 µM in each case. Also, the TGI in the assay on MDA-MB-435, in the assay on MOLT-4 leukemia and in the assay with KM12 colon was more than 100 µM throughout.
In the case of `O=C(/C=C1\N=C(c2ccccc2)N(c2nc3ccc(Sc4ccccc4)cc3[nH]2)C1=O)/C=C/c1ccccc1`, the TGI in the assay with HOP-92 NSCLC is more than 100 µM; in the assay with SW-620 colon, more than 100 µM; with UACC-62 melanoma it was 85.2 µM; in the assay with ACHN renal, more than 100 µM; in the assay on SNB-75 CNS, 55.9 µM; in the assay on RPMI-8226 leukemia, 60.9 µM. Moreover, the concentration for total growth inhibition (TGI) in the assay on SK-OV-3 ovarian was more than 100 µM; with RXF 393 renal it was more than 100 µM; in the assay with NCI-H23 lung, more than 100 µM; with BT-549 breast, more than 100 µM; in the assay on U251 CNS, 81.3 µM; in the assay on MALME-3M melanoma it was more than 100 µM. Besides, the TGI was more than 100 µM in the assay on SNB-19 CNS; more than 100 µM in the assay with MCF7 breast; more than 100 µM with OVCAR-5 ovarian; 33.9 µM in the assay with MDA-MB-435; more than 100 µM in the assay with MOLT-4 leukemia; more than 100 µM in the assay on KM12 colon.
Regarding `COc1ccc2nc3cc(Cl)ccc3c(NCCCN(Cc3cc(OC)c(OC)c(OC)c3)Cc3cc(OC)c(OC)c(OC)c3)c2c1`, the TGI in the assay on HOP-92 NSCLC turned out to be 23.7 µM; in the assay with SW-620 colon, 3.22 µM; with UACC-62 melanoma, 32.3 µM; with ACHN renal, 27.2 µM; in the assay on RPMI-8226 leukemia, 32 µM; in the assay on SK-OV-3 ovarian, 32.8 µM. The TGI in the assay on RXF 393 renal was 15.2 µM; in the assay with BT-549 breast, 28 µM; in the assay on U251 CNS, 17.3 µM; in the assay on MALME-3M melanoma it was 44.1 µM; with SNB-19 CNS, 35.8 µM; with MCF7 breast, 30.4 µM. Further, the TGI was determined as 27.9 µM with OVCAR-5 ovarian, 7.11 µM with MOLT-4 leukemia, 34.5 µM in the assay on NCI-H226 lung and 28.3 µM with KM12 colon.
As to `Cc1ccc(S(=O)(=O)N2CCCN(S(=O)(=O)c3ccc(C)cc3)CCN(S(=O)(=O)c3ccc(C)cc3)CCCSCC2)cc1`, the TGI in the assay with HOP-92 NSCLC, in the assay on SW-620 colon, in the assay with UACC-62 melanoma, with ACHN renal, in the assay on SNB-75 CNS and in the assay with RPMI-8226 leukemia was more than 100 µM throughout. Further, the TGI in the assay on SK-OV-3 ovarian, in the assay on RXF 393 renal, in the assay with NCI-H23 lung, in the assay on BT-549 breast, in the assay on U251 CNS and in the assay with SNB-19 CNS was more than 100 µM throughout. Further, the TGI in the assay with MCF7 breast, in the assay on OVCAR-5 ovarian, with MDA-MB-435, in the assay on MOLT-4 leukemia and with NCI-H226 lung was more than 100 µM each time.
Consider `CC(C)(C)c1cc(C(=O)Nc2cc(Br)c(Br)cc2S(N)(=O)=O)cc(C(C)(C)C)c1O`, for which the TGI in the assay with SW-620 colon was 21.4 µM; with UACC-62 melanoma, 23.1 µM; in the assay with ACHN renal, 23.4 µM; in the assay on SNB-75 CNS it was 21.5 µM; with RPMI-8226 leukemia, more than 100 µM; in the assay with SK-OV-3 ovarian, 31.3 µM. The total growth inhibition concentration (TGI) came to 23.1 µM in the assay on RXF 393 renal; 40 µM with NCI-H23 lung; 25.4 µM in the assay on BT-549 breast; 26.6 µM in the assay on U251 CNS; 26.6 µM in the assay on MALME-3M melanoma; 31.1 µM in the assay with SNB-19 CNS. The TGI in the assay with MCF7 breast turned out to be 18.8 µM; in the assay on OVCAR-5 ovarian it was 24.9 µM; with MDA-MB-435 it was 24.7 µM; with MOLT-4 leukemia, 18.8 µM; in the assay with NCI-H226 lung, 29.3 µM; in the assay on KM12 colon, 36.4 µM.
As to `Oc1ccc(-c2csc(NNC3=NC/C(=C/c4ccc5c(c4)OCO5)S3)n2)cc1O`, the TGI with HOP-92 NSCLC was more than 100 µM; in the assay with SW-620 colon it was more than 100 µM; in the assay on ACHN renal it was more than 100 µM; in the assay on SNB-75 CNS, 38.9 µM; in the assay with SK-OV-3 ovarian, more than 100 µM; in the assay with NCI-H23 lung it was 47.7 µM. The TGI in the assay with U251 CNS, with SNB-19 CNS, in the assay with MCF7 breast, in the assay on OVCAR-5 ovarian, in the assay with MDA-MB-435 and with MOLT-4 leukemia was more than 100 µM in each case. Also, the TGI in the assay on NCI-H226 lung and with KM12 colon was more than 100 µM each time.
